Results reported in ChEMBL document CHEMBL1124041, “Conformational and steric aspects of the inhibition of phenylethanolamine N-methyltransferase by benzylamines” (J Med Chem, 1988).

What was measured:
[1] = target: T1, Phenylethanolamine N-methyltransferase (Bos taurus, UniProt P10938); assay: Inhibition of phenylethanolamine N-methyl-transferase (PNMT)
T1 sequence (P10938 whole entry): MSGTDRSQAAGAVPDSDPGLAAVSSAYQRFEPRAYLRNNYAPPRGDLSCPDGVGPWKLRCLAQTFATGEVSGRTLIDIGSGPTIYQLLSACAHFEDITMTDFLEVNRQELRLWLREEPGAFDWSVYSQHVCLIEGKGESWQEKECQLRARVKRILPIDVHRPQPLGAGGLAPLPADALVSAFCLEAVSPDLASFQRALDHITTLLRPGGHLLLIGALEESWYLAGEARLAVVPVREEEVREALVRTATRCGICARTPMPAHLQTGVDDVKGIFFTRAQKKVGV

[2] = target: T2, Phenylethanolamine N-methyltransferase (Bos taurus) (UniProt P10938); assay: Molar pI50 value for phenylethanolamine N-methyl-transferase (PNMT) inhibition
T2 sequence (whole entry): T1 sequence (P10938 whole entry)

[3] = target: T2, Phenylethanolamine N-methyltransferase (Bos taurus); assay: Acid dissociation constant of phenylethanolamine N-methyl-transferase (PNMT) inhibition

SMILES	Ki [1] [µM]	pI50 [2] [M]	pKa [3]
c1ccc2c(c1)CC1CC[C@H]2N1	153	–	–
NCc1ccc(Cl)cc1	–	4.07	9.14
NCc1ccc(F)cc1	–	3.17	9.3
NCc1cccc(Cl)c1Cl	–	–	7.35
Cc1ccc(CN)cc1	–	3.16	9.54
c1cc2c3c(c1)CC[C@@H]3CCC2	52	–	–
NCc1cccc(F)c1	–	4	9.04
NCc1cccc(Cl)c1	–	5.07	9.01
NC1CC2C[C@@H]1c1ccccc12 (some centres not stated)	479	–	–
c1ccc2c(c1)C1CC[C@H]2NC1	> 2000	–	–
Cc1cccc(CN)c1	–	3.82	9.45
N[C@@H]1CC2CCC1c1ccccc12 (some centres not stated)	> 1000	–	–
COc1ccc(CN)cc1	–	2.78	9.51
NCc1cccc(Br)c1	–	5.17	8.98
CC1Cc2ccccc2CN1 (configuration not stated)	3	–	–
NCc1ccc(Br)cc1	–	4.37	9.13
NCc1ccccc1	–	–	9.38
c1ccc2c(c1)C1CC[C@H]2N1	> 2000	–	–
